Assay: Test method of measuring skin temperature when smelling the aroma of the test sample
Assay type: in vivo, human
Conditions: females in their 20's, aroma smelled from soaked cotton, chest skin temperature as reference, 25 °C, humidity 45%; for effect of the aroma on the skin temperature of the cheek (change level with aroma minus change level with no aroma): samples 0.05-0.1 mass % in triethyl citrate or ethanol, FIG. 1
Description: The present invention will be explained below in more detail with reference to examples. Test samples were prepared which were a dilution of an extract of Japanese peppermint by triethyl citrate to a concentration of 0.05 mass %, a dilution of an extract of juniper berry by triethyl citrate to a concentration of 0.1 mass %, a dilution of an extract of […] by triethyl citrate to a concentration of 0.05 mass %, a dilution of dihydro-β-ionol by ethanol to a concentration of 0.1 mass %, a dilution of geraniol by ethanol to a concentration of 0.1 mass %, and a dilution of 4-methoxystyrene by ethanol to a concentration of 0.5 mass %, and how the aromas of those test samples influenced a skin temperature was tested. In this example, test subjects were females in their 20's. Five test subjects for the extract of Japanese peppermint, seven test subjects for the extract of juniper berry, three test subjects for the extract of […] test subjects for dihydro-β-ionol, five test subjects for geraniol, and seven test subjects for 4-methoxystyrene participated in the tests. The test content was explained in advance to the test subjects, and the participation in the test was agreed in writing. The tests were carried out in a room at a constant temperature set to 25 ° C. and a constant humidity set to 45%. Skin temperature sensors were attached to a cheek of the test subject, a hand fingertip (middle finger), and a chest, and connected to a temperature monitor to successively measure the skin temperature. […] Skin temperature change levels of a cheek and those of a hand fingertip between when an aroma was smelled and when no aroma was smelled were compared with each other, and an effect of the aroma of the test sample to the skin temperature was evaluated. […] When this value is a positive one, it is determined that a skin temperature is raised and when this value is a negative one, it is determined that a skin temperature is lowered.

CC1=C(CCC(C)O)C(C)(C)CCC1 (stereo not drawn) [dihydro-β-ionol, Dihydro-β-ionol]
effect of the aroma on the skin temperature of the cheek (change level with aroma minus change level with no aroma): effect of raising the skin temperature of the cheek

CC(C)=CCC/C(C)=C/CO [geraniol, Geraniol]
effect of the aroma on the skin temperature of the cheek (change level with aroma minus change level with no aroma): effect of raising the skin temperature of the cheek

C=Cc1ccc(OC)cc1 [4-methoxystyrene]
effect of the aroma on the skin temperature of the hand fingertip (change level with aroma minus change level with no aroma) (middle finger, samples 0.05-0.5 mass % in triethyl citrate or ethanol, FIG. 2): effect of raising the skin temperature of the hand fingertip
